The values below come from patent publication US10800755B2, “2,6-disubstituted pyridine derivative” (Sumitomo Dainippon Pharma Co., Ltd., priority 2017, dated 2020).

One data set has as its system ICR male mouse. The experiment in a line: Test 7: marble-burying behavior test. The data set is classed as in vivo. The procedure:
Test 7: Marble-Burying Behavior Test
The effect of the present compound for obsessive-compulsive disorder-like behavior was evaluated in a manner mentioned below.
450-500 g of paper floorcloth was beded in a plastic cage (floor area: 778 cm^2), and 20 glass marbles were set on the paper floorcloth at regular intervals. To a 5-week-old ICR male mouse, the present compound was intraperitoneally administered with saline solution. 15 minutes after the administration, the mouse was made to softly enter the corner of the cage and move freely in the cage for 15 minutes. Then the mouse was taken out from the cage. The number of the marbles that were buried in the floorcloth was counted. The numbers in the solvent-administration group and the present compound-administration group were compared to be statistically processed.

Data set [1] is described as follows: Test 3-2: metabolic stability test of human liver microsome (0.5 or 1.0 mg/mL). In kind it is in vitro ADME. As to conditions: test compound 0.1 μmol/L, 37° C., 30 minutes. The procedure:
Test 3-2: Metabolic Stability Test of Human Liver Microsome
In order to evaluate the metabolic stability of human liver microsomes more precisely, the stability of the present compounds for human liver microsome metabolism was evaluated with a suitable concentration of human liver microsome, as mentioned below. The used human liver microsome was obtained from Xenontech. Human liver microsome, NADPH, and each test compound were mixed in 25 mmol/L phosphate buffer solution (pH 7.4) to adjust each concentration as shown below, and the mixture was incubated at 37° C. for 30 minutes. • human liver microsome: 0.5 or 1.0 mg/mL • NAPDH: 3.2 mmol/L • test compound: 0.1 μmol/L
The residual ratio of the test compound in each sample after the incubation for 30 minutes was measured with a LC-MS, and the metabolic stability of human liver microsome was calculated about each test compound with the following formula. Metabolic stability of human liver microsome (mL/min/mg protein)=−LN (residual ratio)/“reaction time”/“concentration of human liver microsome”
(Liver microsomes are vesicles of endoplasmic reticulum, rich in cytochrome P450 enzymes.)

The nature of data set [2]: Test 4-2: predictive test of human half-life (monkey distribution volume, serum unbound fraction, Test 3-2 stability). As to conditions: in vivo, predicted using Test 3-2 metabolic stability. As to the method: Test 4-2: Predictive Test of Human Half-Life
(§1) 0.01 mol/L of the present compound in aqueous hydrochloric acid solution was parenterally administered to cynomolgus monkey. 5 minutes, 15 minutes, 30 minutes, 1 hour, 2 hours, 4 hours, 6 hours, and 24 hours after the administration, the blood was collected. The plasma was obtained from the collected blood, the drug concentration in the plasma was measured with a LC-MS, and the monkey distribution volume was calculated from the transition of the concentrations. The unbound fraction rate of the present compound in serum of human and monkey was measured by equilibrium dialysis method.
Using the monkey distribution volume, the unbound fraction rate in serum of human and monkey, and the result of the metabolic stability of human liver microsome which was obtained in Test 3-2, the half-life in human was calculated according to the formula below. “Human distribution volume”=“monkey distribution volume”×“unbound fraction rate in serum of human”/“unbound fraction rate in serum of monkey” “Human hepatic clearance”=(“human hepatic blood flow”×“unbound fraction rate in serum of human”×56.7×“metabolic stability of human liver microsome”)/(“human hepatic blood flow”+“unbound fraction rate in serum of human”×56.7×“metabolic stability of human liver microsome”) “Half-life in human”=0.693×“human distribution volume”/“human hepatic clearance”

The next data set addresses human 5-HT1A receptor (Homo sapiens (Human), UniProt P08908). Briefly: Test 1: agonistic activity for human 5-HT1A receptor (aequorin/Gα16 luminescence in CHO-K1 cell). The data set is classed as cell-based. An outline of the steps:
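Aequorin and Gα16 transiently co-expressed with each receptor in CHO-K1 cells, cultured 24 h at 37 °C. Compounds added from DMSO solution; agonism read as change in luminescence.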

The target in data set [3] is T1, human D4 receptor (Homo sapiens (Human), UniProt P21917). The experiment in a line: Test 1: agonistic activity for human D4 receptor (aequorin/Gα16 luminescence in CHO-K1 cell). The data set is classed as cell-based.
T1 sequence (P21917 whole entry): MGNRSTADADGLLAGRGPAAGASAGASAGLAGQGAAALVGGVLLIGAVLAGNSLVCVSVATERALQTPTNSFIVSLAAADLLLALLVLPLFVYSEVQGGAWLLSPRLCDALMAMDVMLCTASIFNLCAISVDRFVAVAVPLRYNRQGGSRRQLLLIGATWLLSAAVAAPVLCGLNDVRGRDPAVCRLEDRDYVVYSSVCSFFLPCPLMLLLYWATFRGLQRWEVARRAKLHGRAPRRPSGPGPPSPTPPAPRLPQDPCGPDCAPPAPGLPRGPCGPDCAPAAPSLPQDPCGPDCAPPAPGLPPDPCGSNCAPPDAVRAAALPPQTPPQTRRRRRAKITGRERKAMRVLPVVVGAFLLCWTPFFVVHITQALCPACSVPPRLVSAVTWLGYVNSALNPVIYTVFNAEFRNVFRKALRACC
Data set [4] is described as follows: Test 4-1: predictive test of human half-life (monkey distribution volume, serum unbound fraction, Test 3-1 stability). As to conditions: in vivo, predicted using Test 3-1 metabolic stability. As to the method:
Test 4-1: Predictive Test of Human Half-Life
as §1
Using the monkey distribution volume, the unbound fraction rate in serum of human and monkey, and the result of the metabolic stability of human liver microsome which was obtained in Test 3-1, the half-life in human was calculated according to the formula below. “Human distribution volume”=“monkey distribution volume”×“unbound fraction rate in serum of human”/“unbound fraction rate in serum of monkey” “Human hepatic clearance”=(“human hepatic blood flow”×“unbound fraction rate in serum of human”×56.7×“metabolic stability of human liver microsome”)/(“human hepatic blood flow”+“unbound fraction rate in serum of human”×56.7×“metabolic stability of human liver microsome”) “Half-life in human”=0.693×“human distribution volume”/“human hepatic clearance”

Data set [5] addresses T1, human D4 receptor. Briefly: Test 2: binding activity to human D4 receptor ([3H] dopamine, CHO cell membrane). As to conditions: [3H] dopamine; read-out: D4 binding affinity (Ki value).
The mark [6] stands for this setting: CHO-K1, 100% = 10 μmol/L endogenous ligand.
The mark [7] stands for this setting: CHO-K1 cell, aequorin luminescence.

human 5-HT1A receptor, sequence (P08908 whole entry): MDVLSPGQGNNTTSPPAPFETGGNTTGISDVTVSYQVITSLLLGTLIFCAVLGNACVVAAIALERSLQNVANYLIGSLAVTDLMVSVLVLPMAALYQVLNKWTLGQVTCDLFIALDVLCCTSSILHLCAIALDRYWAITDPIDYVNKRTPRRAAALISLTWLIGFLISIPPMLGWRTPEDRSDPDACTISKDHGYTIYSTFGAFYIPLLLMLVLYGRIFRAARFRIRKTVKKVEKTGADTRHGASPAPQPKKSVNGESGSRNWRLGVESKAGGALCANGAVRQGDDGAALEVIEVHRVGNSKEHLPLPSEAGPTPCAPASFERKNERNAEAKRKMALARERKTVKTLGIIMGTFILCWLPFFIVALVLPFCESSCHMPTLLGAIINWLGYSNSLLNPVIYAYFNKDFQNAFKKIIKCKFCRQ

One may read the half-life as the time needed for the level to fall by half in the phase considered. A word on the Emax: it is the size of the effect at its maximum, as opposed to the concentration needed. Broadly, the EC50 is the midpoint of the concentration-response curve. As usually defined, the Ki is a measure of affinity in units of concentration, obtained from inhibition or displacement. Take `O=C(NCCN1CCC(c2cccc(C(F)(F)F)n2)CC1)C1CCC(F)(F)CC1` [Example 1, 4,4-Difluoro-N-(2-{4-[6-(trifluoromethyl)pyridin-2-yl]piperidin-1-yl}ethyl)cyclohexane-carboxamide]: the “enhancement effect of decreasing the number of the buried marbles compared with single administration of escitalopram” value in the data set on ICR male mouse (combination with escitalopram, 0.3 mg/kg administration) was 43.8%. Besides, in the data set with ICR male mouse (intraperitoneal, 0.5 mg/kg administration), the “decrease of the buried marbles for the solvent-administration group” value is on record as 44.8%. In data set [1], the “Metabolic stability of human liver microsome” value worked out at 0.031 mL/min/mg protein. The figures for the half-life in data set [2] and in data set [4] were 24 h and 11 h, respectively. Further, the Emax on human 5-HT1A receptor (setting [6]) stood at 96%; on human D4 receptor [3] (setting [6]), 67%. The 50% effective concentration (EC50) on human 5-HT1A receptor (setting [7]) is < 0.01 µM; on human D4 receptor [3] (setting [7]), 0.0119 µM. In addition, at human D4 receptor [5], the Ki was determined as 0.011 µM.
